Measured values taken from ChEMBL document CHEMBL5344471, “64Cu-Labeled Boron-Containing Cyclic RGD Peptides for BNCT and PET Imaging” (ACS Med Chem Lett, 2024).
Active and inactive are the calls of the source. The calls are words filed in the database; no cut-off is given here.

What was measured:
U-87 MG = experiment: Cytotoxicity against human U-87 MG cells at 10 to 400 uM incubated for 24 hrs by CCK-8 assay; format: functional, cell-based; conditions: U-87MG ATCC, dose 10-400 µM
[1] = Biodistribution in Balb/c mouse xenografted with human U-87 MG cells by measuring ratio of boron concentration in tumor to brain at 0.04 mmol,iv administrated for 1 hr by ICP-MS analysis; format: ADME, organism-based; conditions: in vivo
[2] = Biodistribution in Balb/c mouse xenografted with human U-87 MG cells by measuring ratio of boron concentration in tumor to liver at 0.04 mmol,iv administrated for 1 hr by ICP-MS analysis; format: ADME, organism-based; conditions: in vivo
[3] = Biodistribution in Balb/c mouse xenografted with human U-87 MG cells by measuring ratio of boron concentration in tumor to kidney at 0.04 mmol,iv administrated for 1 hr by ICP-MS analysis; format: ADME, organism-based; conditions: in vivo
[4] = Biodistribution in Balb/c mouse xenografted with human U-87 MG cells by measuring ratio of boron concentration in tumor to muscle at 0.04 mmol,iv administrated for 1 hr by ICP-MS analysis; format: ADME, organism-based; conditions: in vivo

Ratio [1]: 13.4
Ratio [2]: 2.5
Ratio [3]: 0.43
Ratio [4]: 2.41
Compound: N=C(N)NCCC[C@@H]1NC(=O)[C@H](CCCCN)NC(=O)[C@@H](Cc2ccc(B(O)O)cc2)NC(=O)[C@H](CC(=O)O)NC(=O)CNC1=O
Activity (U-87 MG): inactive
